Results on one molecule are retold here after patent US20090111860A1, “SULFONAMIDE COMPOUNDS USEFUL AS ADG RECEPTOR MODULATORS” (ASTRAZENECA AB, priority 2006, published 2009).

In the test the target is T1, EDG-1/S1P1 receptor (Homo sapiens, UniProt P21453).
T1 construct: expressed in transfected cells; host or cells: human osteogenic sarcoma U2OS cells (EDG-1 Transfluor U2OS WT Clone #37)
The test can be described thus: In vitro cell based receptor activation assay - Transfluor assay. Particulars: EDG-1 Transfluor U2OS WT Clone #37 cells; beta-arrestin GFP relocalization; 375 nM or 750 nM S1P ligand. The text has this: A. In Vitro Cell Based Receptor Activation Assay-Transfluor Assay
This cell-based assay was designed to assess the ability of small molecule antagonists to inhibit activation of the GPCR S1P1 in the presence of its cognate ligand S1P. The assay used technology initially developed by Norak Biosciences (Xsira Pharmaceutical) and presently owned by Molecular Devices. A human osteogenic sarcoma (U2OS) cell line overexpressing the EDG-1/S1P1) receptor as well as a beta-arrestin/green fluorescent protein (GFP) construct hereafter termed EDG-1 Transfluor U2OS WT Clone #37 was employed.
Using a high content screening approach (Cellomics Arrayscan), receptor activity was measured by assessment of the relocalization of beta-arrestin GFP in response to stimulation of EDG-1 by S1P. Specifically, EDG-1 Transfluor U2OS WT Clone #37 cells were plated at a density of 6250 cells in 40 uL medium per well in 384 well plastic bottomed microtiter plates (BD Falcon) and incubated overnight at 37° C./5% CO2. Prior to screening, compounds were dissolved in 100% dimethyl sulfoxide (DMSO) to a final stock concentration of 10 mM. […] Plates were then sealed and analysed on the Cellomics Arrayscan using the GPCR signalling algorithm. EC50 values were then calculated using IDBS ActivityBase software.

T1 sequence (P21453 whole entry): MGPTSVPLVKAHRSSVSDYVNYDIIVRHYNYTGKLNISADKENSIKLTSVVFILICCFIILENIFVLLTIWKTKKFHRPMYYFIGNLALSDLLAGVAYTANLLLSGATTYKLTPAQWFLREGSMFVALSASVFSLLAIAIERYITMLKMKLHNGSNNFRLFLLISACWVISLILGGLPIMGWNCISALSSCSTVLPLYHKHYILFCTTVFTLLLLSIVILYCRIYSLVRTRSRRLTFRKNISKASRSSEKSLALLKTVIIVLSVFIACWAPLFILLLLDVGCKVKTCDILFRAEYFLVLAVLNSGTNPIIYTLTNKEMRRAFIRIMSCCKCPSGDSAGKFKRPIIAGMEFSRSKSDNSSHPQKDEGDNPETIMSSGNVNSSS

For orientation: EC50 means the concentration at which the effect is half-maximal. Lower therefore signals a more potent agent. For the molecule `CCc1c(C(C)NS(=O)(=O)c2ccc(Cl)cc2)n[nH]c1C` (stereo not shown) [Example 1], the 50% effective concentration (EC50) was found to be 680 nM.
